Data taken from the supplement of paper PMC10307832.

How the values were obtained:
Assay in all cases: relative viability (nuclei count vs DMSO), 5 days (fraction); higher = more cells survive
AZD8055 + Bortezomib = compound: COc1ccc(-c2ccc3c(N4CCOC[C@@H]4C)nc(N4CCOC[C@@H]4C)nc3n2)cc1CO [AZD8055] + CC(C)C[C@H](NC(=O)[C@H](Cc1ccccc1)NC(=O)c1cnccn1)B(O)O [Bortezomib] (partner 0.002 µM)
In short: (§1)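 Relative viability was taken as the ratio of nuclei in treated wells to nuclei in vehicle wells. Lung cancer cell lines in 1536-well plates received compounds by pin tool one day after seeding, either one drug alone or a fixed anchor-drug dose plus five library-drug doses (not always all listed) in √10 steps. Nuclei were counted on 4× images after 5 days of treatment, and values are medians of duplicate plates.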

AZD8055 + Palbociclib = compound: COc1ccc(-c2ccc3c(N4CCOC[C@@H]4C)nc(N4CCOC[C@@H]4C)nc3n2)cc1CO [AZD8055] + CC(=O)c1c(C)c2cnc(Nc3ccc(N4CCNCC4)cn3)nc2n(C2CCCC2)c1=O [Palbociclib] (partner 0.5 µM)
In short: as §1

AZD8055 + Pictilisib = compound: COc1ccc(-c2ccc3c(N4CCOC[C@@H]4C)nc(N4CCOC[C@@H]4C)nc3n2)cc1CO [AZD8055] + CS(=O)(=O)N1CCN(Cc2cc3nc(-c4cccc5[nH]ncc45)nc(N4CCOCC4)c3s2)CC1 [Pictilisib] (partner 1 µM)
In short: as §1

AZD8055 + Foretinib = compound: COc1ccc(-c2ccc3c(N4CCOC[C@@H]4C)nc(N4CCOC[C@@H]4C)nc3n2)cc1CO [AZD8055] + COc1cc2c(Oc3ccc(NC(=O)C4(C(=O)Nc5ccc(F)cc5)CC4)cc3F)ccnc2cc1OCCCN1CCOCC1 [Foretinib] (partner 0.25 µM)
In short: as §1

Row | Cell Line | relative viability (AZD8055 + Bortezomib; first compound 0.01 µM) | relative viability (AZD8055 + Bortezomib; first compound 0.03162 µM) | relative viability (AZD8055 + Bortezomib; first compound 0.1 µM) | relative viability (AZD8055 + Bortezomib; first compound 0.3162 µM) | relative viability (AZD8055 + Bortezomib; first compound 1 µM) | relative viability (AZD8055 + Palbociclib; first compound 0.01 µM) | relative viability (AZD8055 + Palbociclib; first compound 0.03162 µM) | relative viability (AZD8055 + Palbociclib; first compound 0.1 µM) | relative viability (AZD8055 + Palbociclib; first compound 0.3162 µM) | relative viability (AZD8055 + Palbociclib; first compound 1 µM) | relative viability (AZD8055 + Pictilisib; first compound 0.01 µM) | relative viability (AZD8055 + Pictilisib; first compound 0.03162 µM) | relative viability (AZD8055 + Pictilisib; first compound 0.1 µM) | relative viability (AZD8055 + Pictilisib; first compound 0.3162 µM) | relative viability (AZD8055 + Pictilisib; first compound 1 µM) | relative viability (AZD8055 + Foretinib; first compound 0.01 µM) | relative viability (AZD8055 + Foretinib; first compound 0.03162 µM) | relative viability (AZD8055 + Foretinib; first compound 0.1 µM) | relative viability (AZD8055 + Foretinib; first compound 0.3162 µM) | relative viability (AZD8055 + Foretinib; first compound 1 µM)
1 | HCC-78 | 0.561 | 0.466 | 0.423 | 0.274 | 0.288 | 0.492 | 0.529 | 0.379 | 0.437 | 0.463 | 0.216 | 0.218 | 0.164 | 0.178 | 0.164 | 0.496 | 0.527 | 0.388 | 0.417 | 0.308
2 | HCC-366 | 1.31 | 0.863 | 0.98 | 0.337 | 0.123 | 0.311 | 0.199 | 0.0939 | 0.0508 | 0.0399 | 0.0713 | 0.137 | 0.132 | 0.0885 | 0.0934 | 0.979 | 0.913 | 0.687 | 0.428 | 0.417
3 | HCC-827 | 1.2 | 1.04 | 1.11 | 0.935 | 1.08 | 0.482 | 0.406 | 0.381 | 0.227 | 0.181 | 1.1 | 0.875 | 0.741 | 0.495 | 0.477 | 1.14 | 0.98 | 1.02 | 0.424 | 0.337
4 | HOP-62 | 0.669 | 0.747 | 0.969 | 0.304 | 0.469 | 0.428 | 0.441 | 0.414 | 0.171 | 0.172 | 0.878 | 0.534 | 0.582 | 0.246 | 0.259 | 1.01 | 1.01 | 1.09 | 0.609 | 0.521
5 | IA-LM | 0.706 | 0.363 | 0.114 | 0.106 | 0.0977 |  |  |  |  |  | 0.221 | 0.217 | 0.118 | 0.0814 | 0.0826 | 0.933 | 0.659 | 0.567 | 0.169 | 0.126
6 | LC-2-ad | 1.08 | 1.01 | 1.08 | 0.777 | 0.537 | 0.534 | 0.471 | 0.438 | 0.388 | 0.312 | 0.464 | 0.458 | 0.322 | 0.339 | 0.255 | 1.05 | 0.855 | 0.652 | 0.58 | 0.469
7 | LCLC-97TM1 | 0.524 | 0.417 | 0.345 | 0.103 | 0.162 | 0.205 | 0.164 | 0.129 | 0.0928 | 0.0897 | 0.172 | 0.107 | 0.106 | 0.108 | 0.176 | 0.963 | 0.74 | 0.671 | 0.417 | 0.529
8 | LK-2 |  |  |  |  |  | 0.387 | 0.399 | 0.347 | 0.17 | 0.102 | 0.571 | 0.438 | 0.368 | 0.335 | 0.195 | 0.938 | 0.938 | 0.648 | 0.292 | 0.142
9 | NCI-H358 |  |  |  |  |  | 0.143 | 0.137 | 0.135 | 0.115 | 0.101 | 0.334 | 0.301 | 0.233 | 0.222 | 0.245 | 1.03 | 0.887 | 0.585 | 0.264 | 0.181
10 | NCI-H522 |  |  |  |  |  | 1.06 | 0.923 | 0.717 | 0.536 | 0.414 |  |  |  |  |  |  |  |  |  | 
11 | NCI-H596 | 0.856 | 0.722 | 0.697 | 0.459 | 0.497 |  |  |  |  |  | 0.341 | 0.363 | 0.32 | 0.308 | 0.337 | 0.79 | 0.551 | 0.474 | 0.319 | 0.335
12 | NCI-H1395 |  |  |  |  |  | 0.604 | 0.526 | 0.547 | 0.44 | 0.45 | 0.587 | 0.535 | 0.636 | 0.478 | 0.425 | 0.982 | 0.774 | 0.835 | 0.505 | 0.528
13 | NCI-H1563 | 0.862 | 0.808 | 0.758 | 0.599 | 0.773 |  |  |  |  |  | 0.651 | 0.614 | 0.65 | 0.61 | 0.638 | 0.913 | 0.723 | 0.725 | 0.635 | 0.645
14 | NCI-H1648 |  |  |  |  |  | 0.251 | 0.332 | 0.201 | 0.235 | 0.241 |  |  |  |  |  |  |  |  |  | 
15 | NCI-H1703 | 0.278 | 0.231 | 0.18 | 0.181 | 0.194 |  |  |  |  |  | 0.24 | 0.263 | 0.257 | 0.232 | 0.255 | 0.34 | 0.32 | 0.306 | 0.301 | 0.226
16 | NCI-H1792 | 0.93 | 0.771 | 0.827 | 0.173 | 0.189 | 0.677 | 0.585 | 0.417 | 0.359 | 0.307 | 0.235 | 0.229 | 0.142 | 0.112 | 0.094 |  |  |  |  | 
17 | NCI-H1793 |  |  |  |  |  | 0.216 | 0.218 | 0.163 | 0.22 | 0.211 | 0.288 | 0.268 | 0.177 | 0.238 | 0.156 | 0.457 | 0.35 | 0.222 | 0.189 | 0.183
18 | NCI-H1944 |  |  |  |  |  | 0.291 | 0.264 | 0.22 | 0.174 | 0.152 | 0.323 | 0.302 | 0.278 | 0.275 | 0.287 | 1.04 | 0.793 | 0.648 | 0.409 | 0.321
19 | NCI-H2170 |  |  |  |  |  | 0.331 | 0.314 | 0.233 | 0.173 | 0.143 | 0.273 | 0.255 | 0.213 | 0.222 | 0.23 | 1.07 | 1.04 | 0.868 | 0.451 | 0.397
20 | NCI-H2342 |  |  |  |  |  | 0.489 | 0.537 | 0.458 | 0.473 | 0.426 |  |  |  |  |  | 0.999 | 1.05 | 0.801 | 0.538 | 0.578
21 | SK-MES-1 |  |  |  |  |  | 0.284 | 0.247 | 0.24 | 0.228 | 0.249 | 0.311 | 0.355 | 0.299 | 0.181 | 0.236 | 0.849 | 0.819 | 0.81 | 0.408 | 0.329
22 | SW 900 |  |  |  |  |  | 0.546 | 0.559 | 0.474 | 0.261 | 0.289 |  |  |  |  |  | 1.03 | 0.86 | 0.647 | 0.654 | 0.409
